The values that follow come from US8273771B2, “Ischemic disorder or disease inhibitors” (Pronas Pharma AB, priority 2007, dated 2012).

Molecules are shown by their SMILES.

Assay [1] relates to rats with induced SAH. As to the kind of experiment: Autoradiographic measurements of regional and global CBF after SAH. The class given is in vivo, rat. The following applies: for reduction in regional CBF (rCBF) after SAH: 18 brain regions. As to the method:
In addition they were treated with 20-50 μl; 10^-6 M of SB386023-b (a kind gift from Dr A A Parsons, GSK, UK) or the same volume of vehicle repeatedly 6, 12, 24 and 36 h after the induced SAH. This dose was based on a previous in vivo study with SAH.
In addition, they were treated with the PKC inhibitor RO-31-7549 (Calbiochem, Sweden) or vehicle in conjunction with the operation and after the induced SAH. All animals treated with RO-31-7549 received […] injections intracisternally of RO-31-7549 or vehicle in similar volume. Thus, 20 to 50 μl 10-^6 mol/L of RO-31-7549 was injected intracisternally at 30 mins before the induced SAH and after the SAH 20 μl 10-^6 mol/L of RO-31-7549 was administered repeatedly after 3, 6, 12, 24 and 32 h from the first RO-31-7549 injection. This dose was chosen on the basis of previous detailed work on isolated cerebral arteries (Hansen-Schwartz et al, 2002), the dose was chosen at near maximum inhibition and calculation of cerebrospinal fluid volume/turnover.
Regional and global cerebral blood flow was measured by a model originally described by Sakurada et al., (1978) and modified by Gjedde et al., (1980). In brief, after 48 hours of observation rats in the various groups (sham, SAH+vehicle and SAH treated with the raf inhibitor) were anaesthetized using 5% halothane in N2O/O2 (30:70). The animal was intubated and artificially ventilated with inhalation of 0.5-1.5% halothane in N2O/O2 (70:30) during the surgical procedure. The anaesthesia and the respiration were monitored by regularly withdrawing arterial blood samples for blood gas analysis (Radiometer AS, Denmark). A catheter to measure MABP was placed in the right femoral artery and a catheter for blood sampling was placed in the left femoral artery. This catheter was connected to a constant velocity withdrawal pump (Harvard apparatus 22, USA) for mechanical integration of tracer concentration. In addition, a catheter was inserted in one femoral vein for injection of heparin and for infusion of the radioactive tracer. The MABP was continuously monitored with a Powerlab Unit (ADInstruments, UK). A temperature probe was inserted into the rectum of the rat to record the temperature, which was regularly maintained at 37° C. The hematocrit was measured by a hematocrit centrifuge (Beckman Microfuge 11, USA). After 30 minutes of equilibration a bolus injection of 50 uCi of 14Ciodoantipyrine 4[N-methyl-14C] (Perkin-Elmer, Boston, USA) was given i.v. Arterial blood (122 μl) was withdrawn over 20 seconds. Immediately after this the animal was decapitated, the brain removed and immersed in isopentane (J. T. Baker, Deventer, Netherlands) chilled to −50° C. The arterial blood sample was transferred to liquid scintillation counting vials containing 1 ml mixture of Soluene-350 (Perkin-Elmer, Boston, USA) and Isopropanol (J. T. Baker, Deventer, Netherlands) (1:1). After 2 hours at 60° C., 0.2 ml of 30% hydrogen peroxide was added to the vials, and the samples were maintained at room temperature for 15-30 minutes. Thereafter the samples were kept at 60° C. for 30 minutes and 10-15 ml Hionic-Fluor (Perkin-Elmer, Foster, Calif., USA) was added. The β-radioactivity scintillation counting was performed on the samples with a program that included quench correction (Packard 2000 CA, Denmark). The 14C activity in the tissue was determined after sectioning the brain in 20 μm sections at −20° C. in a cryostat (Wild Leitz A/S, Glostrup, Denmark). The sections were exposed to x-ray films (Kodak, Denmark) together with 14C methylmethacrylate standards (Amersham Life Science, England) and exposed the films for 20 days. Densities of the autoradiograms were measured with a Macintosh computer equipped with an analog CF 4/1 camera (Kaiser, Germany) and a transparency flat viewer (Color-Control 5000, Weilheim, Germany). The 14C content was determined in several brain regions (see Table 2). […]

Assay [2] has as its system rats with induced SAH. As to the kind of experiment: Neurological scoring in rat subarachnoid hemorrhage model. The class given is in vivo. The conditions noted are these: established scoring system, SAH+vehicle score 1, sham score 0. From the text:
Subarachnoid hemorrhage was induced by a model originally devised by Svendgaard et al and carefully described by Prunell et al (2003). Male Sprague-Dawley rats (350-400 g) were anaesthetized using 5% halothane (Halocarbon Laboratories, River Edge, N.J.) in N2O/O2 (30:70). The rat was intubated and artificially ventilated with inhalation of 0.5-1.5% halothane in N2O/O2 (70:30) during the surgical procedure. The depth of anaesthesia was carefully monitored and the respiration checked by regularly withdrawing arterial blood samples for blood gas analysis (Radiometer, Copenhagen, Denmark). An electric temperature probe was inserted into the rectum of the rat to record the temperature, which was maintained at 37° C. An arterial catheter to measure blood pressure was placed in the tail artery and a catheter to monitor intracranial pressure (ICP) was placed in the subarachnoid space under the subocciptal membrane. At either side of the skull, 3 mm from the midline and 4 mm anteriorly from the bregma, holes were drilled through the skull bone down to dura mater (without perforation) allowing the placement of two laser-Doppler flow probes to measure cortical CBF. […]
During the period, the rat was monitored regularly, and if showing severe distress the animal was prematurely killed. […]

[3] abbreviates: intracisternal injections from 30 min before SAH and repeatedly after.

Regarding `N#CC(=C(/N)Sc1ccccc1N)/C(C#N)=C(\N)Sc1ccccc1N` [U0126], the “reduction in regional CBF (rCBF) after SAH” value (shortened to “reduction in regional CBF”) with rats with induced SAH [1] (treatment at 0 h / in conjunction with the SAH) and with rats with induced SAH [1] (treatment at 6 h after SAH) was “prevented this reduction in rCBF” throughout.
For the compound `Cn1cc(C2=C(c3cn(CCCN)c4ccccc34)C(=O)NC2=O)c2ccccc21` [RO-31-7549], in the assay on rats with induced SAH [2], the neurological score is 0. For the same compound, in the assay on rats with induced SAH [1] (setting [3]), the “global reduction in CBF after SAH” value is listed as “prevented the marked reduction in CBF” and the “reduction in regional CBF” value was “prevented this reduction in rCBF”.
As to `Oc1cc(-c2nc(-c3ccccc3)[nH]c2-c2ccncc2)ccc1Cl` [SB386023-b], the neurological score with rats with induced SAH [2] came to 0. For the same compound, the “global cerebral blood flow” value with rats with induced SAH [1] (measured at 48 h, treatment 6 h after the SAH, control 140±6, SAH 63±2) was determined as 128±4 ml/100 g/min. Moreover, the “reduction in regional CBF” value with rats with induced SAH [1] (treatment at 6 h after SAH) is on record as “prevented this reduction in rCBF”.
